Data on 15 compounds can be found in US12421207B2 (CMG Pharmaceutical Co., Ltd., priority 2022, dated 2025).

The test system of one assay is HCC827/OR cells. The experiment in a line: Cell viability assay (CellTiter-Glo 2.0), osimertinib-resistant HCC827/OR cells. Format: cell-based, human. As to conditions: Homo sapiens, HCC827, 72 h drug treatment, read-out: Relative cell viability, IC50 HCC827OR. The source says:
(§1) To explore c-MET and AXL mechanisms of EGFR TKI resistance, resistant cells of the EGFR TKI hypersensitive EGFR exon 19 mutant NSCLC cell line, HCC827 and PC9 were generated by exposing these cells to increasing concentrations of EGFR TKI for over 3 months.
(§2) Gefitinib-resistant cells were referred to as HCC827/GR. […] Osimertinib-resistant cells were referred to as HCC827/OR.

In a further assay the test system is PC9/ER cells. Briefly: Cell viability assay (CellTiter-Glo 2.0), erlotinib-resistant PC9/ER cells. Format: cell-based. The following applies: Homo sapiens, PC-9/ER, 72 h drug treatment, read-out: Relative cell viability, IC50 PC9ER.
Excerpt: as §1, §2
A general note: In ATP-based viability assays light output follows the ATP content of the culture.

The next assay concerns HCC827/ER cells. The experiment in a line: Cell viability assay (CellTiter-Glo 2.0), erlotinib-resistant HCC827/ER cells. The class given is cell-based, human. As to conditions: Homo sapiens, HCC827ER, read-out: Relative cell viability.
Excerpt: as §1, §2

In another assay the test system is HCC827/GR cells. The experiment in a line: Cell viability assay (CellTiter-Glo 2.0), gefitinib-resistant HCC827/GR cells. The class given is cell-based, human. The following applies: Homo sapiens, HCC827, 72 h drug treatment, read-out: Relative cell viability, IC50 HCC827GR.
Excerpt: as §1
The human cell line HCC827 was purchased from the American Type Culture Collection (Manassas, VA), and the PC9 cell line was obtained from RIKEN Cell Bank (Ibaraki, Japan). […] Gefitinib-resistant cells were referred to as HCC827/GR. […] Osimertinib-resistant cells were referred to as HCC827/OR.
(§3) Cell viability assays were carried out by plating 1,000 cells per well of HCC827 or PC9 resistant cells, respectively, into white transparent-bottom 384-well plates. The cells were treated with each TKI across a 10-dose range from 1 nM to 10,000 nM. After 72 h of drug treatment, cell viability was measured using the CellTiter-Glo 2.0 assay (Promega, Madison, WI).
as §3

[1] abbreviates: Table 2, EGFR TKI resistant cells, combination with EGFR TKI.
Where [2] appears, read: Table 2, 72 h drug treatment, EGFR TKI resistant cells, combination with EGFR TKI.
The mark [3] stands for this setting: Table 4, combinations of EGFR TKIs and inhibitor of Formula (I).
The mark [4] stands for this setting: Table 4, 72 h drug treatment, combinations of EGFR TKIs and inhibitor of Formula (I).

Read-outs that look alike come from different tables or passages of the source.

Consider `COCCN1CCN(C(=O)CCc2c(Oc3ccc(NC(=O)c4cn(C(C)C)c(=O)n(-c5ccc(F)cc5)c4=O)cc3F)ccnc2N)CC1` [Example 21, N-(4-(2-amino-3-(3-(4-(2-methoxyethyl)piperazin-1-yl)-3-oxopropyl)pyridin-4-yloxy)-3-fluorophenyl)-3-(4-fluorophenyl)-1-isopropyl-2,4-dioxo-1,2,3,4-tetrahydropyrimidine-5-carboxamide], for which the IC50 in the assay with HCC827/OR cells (setting [1]) is < 1000 nM; in the assay with PC9/ER cells (setting [1]), < 1000 nM; in the assay with HCC827/ER cells (setting [2]), < 1000 nM; in the assay with HCC827/GR cells (setting [1]) it was < 100 nM.

As for `CC(C)n1cc(C(=O)Nc2ccc(Oc3ccnc(N)c3C#CC3CCN(C)CC3)c(F)c2)c(=O)n(-c2ccc(F)cc2)c1=O` [Example 23, N-(4-(2-amino-3-((1-methylpiperidin-4-yl)ethynyl)pyridin-4-yloxy)-3-fluorophenyl)-3-(4-fluorophenyl)-1-isopropyl-2,4-dioxo-1,2,3,4-tetrahydropyrimidine-5-carboxamide], the IC50 with HCC827/OR cells (setting [1]) is < 10 nM; with PC9/ER cells (setting [1]) it was < 10 nM; in the assay with HCC827/ER cells (setting [2]), < 100 nM; in the assay with HCC827/GR cells (setting [1]), < 100 nM.

For the compound `CC(C)n1cc(C(=O)Nc2ccc(Oc3ccnc(N)c3C#N)c(F)c2)c(=O)n(-c2ccc(F)cc2)c1=O` [Example 5, N-(4-(2-amino-3-cyanopyridin-4-yloxy)-3-fluorophenyl)-3-(4-fluorophenyl)-1-isopropyl-2,4-dioxo-1,2,3,4-tetrahydropyrimidine-5-carboxamide], the IC50 with HCC827/OR cells (setting [1]) is < 100 nM; in the assay on PC9/ER cells (setting [1]), < 1000 nM; in the assay with HCC827/ER cells (setting [2]), < 10 nM; in the assay on HCC827/GR cells (setting [1]), < 100 nM.

In the case of `Cc1nc(Cn2cc(C(=O)Nc3ccc(Oc4ccnc(N)c4C#CCC4CCN(C)CC4)c(F)c3)c(=O)n(-c3ccc(F)cc3)c2=O)cs1` [Example 43, N-(4-((2-amino-3-(3-(1-methylpiperidin-4-yl)prop-1-yn-1-yl)pyridin-4-yl)oxy)-3-fluorophenyl)-3-(4-fluorophenyl)-1-((2-methylthiazol-4-yl)methyl)-2,4-dioxo-1,2,3,4-tetrahydropyrimidine-5-carboxamide], the IC50 was < 1000 nM with HCC827/OR cells (setting [3]), < 100 nM in the assay on PC9/ER cells (setting [3]), < 100 nM in the assay on HCC827/ER cells (setting [4]) and < 100 nM in the assay with HCC827/GR cells (setting [3]).

For `Cc1nc(Cn2cc(C(=O)Nc3ccc(Oc4ccnc(N)c4C#CC(C)(C)N4CCOCC4)c(F)c3)c(=O)n(-c3ccc(F)cc3)c2=O)cs1` [Example 39, N-(4-((2-amino-3-(3-methyl-3-morpholinobut-1-yn-1-yl)pyridin-4-yl)oxy)-3-fluorophenyl)-3-(4-fluorophenyl)-1-((2-methylthiazol-4-yl)methyl)-2,4-dioxo-1,2,3,4-tetrahydropyrimidine-5-carboxamide], the IC50 in the assay on HCC827/OR cells (setting [3]), with PC9/ER cells (setting [3]), in the assay with HCC827/ER cells (setting [4]) and with HCC827/GR cells (setting [3]) was < 100 nM throughout.

Take `CC(C)N1CCC(CC#Cc2c(Oc3ccc(NC(=O)c4cn(C(C)C)c(=O)n(-c5ccc(F)cc5)c4=O)cc3F)ccnc2N)CC1` [Example 29, N-(4-(2-amino-3-(3-(1-isopropylpiperidin-4-yl)prop-1-ynyl)pyridin-4-yloxy)-3-fluorophenyl)-3-(4-fluorophenyl)-1-isopropyl-2,4-dioxo-1,2,3,4-tetrahydropyrimidine-5-carboxmide]: the IC50 in the assay on HCC827/OR cells (setting [1]), with PC9/ER cells (setting [1]), in the assay on HCC827/ER cells (setting [2]) and with HCC827/GR cells (setting [1]) was < 10 nM throughout.

Consider `Cn1nc(C(=O)Nc2ccc(Oc3ccnc(N)c3C#CC(C)(C)N3CCOCC3)c(F)c2)c(=O)n(-c2ccc(F)cc2)c1=O` [Example 48, N-(4-(2-amino-3-(3-methyl-3-morpholinobut-1-ynyl)pyridin-4-yloxy)-3-fluorophenyl)-4-(4-fluorophenyl)-2-methyl-3,5-dioxo-2,3,4,5-tetrahydro-1,2,4-triazine-6-carboxamide], for which the IC50 with HCC827/OR cells (setting [3]), in the assay with PC9/ER cells (setting [3]), with HCC827/ER cells (setting [4]) and with HCC827/GR cells (setting [3]) was < 1000 nM throughout.

For `CC(C)n1cc(C(=O)Nc2ccc(Oc3ccnc(N)c3C#CCN3CCOCC3)c(F)c2)c(=O)n(-c2ccc(F)cc2)c1=O` [Example 24, N-(4-(2-amino-3-(3-morpholinoprop-1-ynyl)pyridin-4-yloxy)-3-fluorophenyl)-3-(4-fluorophenyl)-1-isopropyl-2,4-dioxo-1,2,3,4-tetrahydropyrimidine-5-carboxamide], the IC50 in the assay on HCC827/OR cells (setting [1]), with PC9/ER cells (setting [1]), in the assay with HCC827/ER cells (setting [2]) and with HCC827/GR cells (setting [1]) was < 10 nM in each case.

As to `CC(C)(C#Cc1c(Oc2ccc(NC(=O)c3c[nH]c(=O)n(-c4ccc(F)cc4)c3=O)cc2F)ccnc1N)N1CCOCC1` [Example 50, N-(4-(2-amino-3-(3-methyl-3-morpholinobut-1-ynyl)pyridin-4-yloxy)-3-fluorophenyl)-3-(4-fluorophenyl)-2,4-dioxo-1,2,3,4-tetrahydropyrimidine-5-carboxamide], the IC50 with HCC827/OR cells (setting [3]) was < 100 nM; in the assay with PC9/ER cells (setting [3]) it was < 100 nM; in the assay with HCC827/ER cells (setting [4]) it was < 100 nM; with HCC827/GR cells (setting [3]), < 1000 nM.

Regarding `CC(C)(C#Cc1c(Oc2ccc(NC(=O)c3c[nH]c(=O)n(-c4ccc(F)cc4)c3=O)cc2F)ccnc1N)N1CCNCC1` [Example 52, N-(4-(2-amino-3-(3-methyl-3-(piperazin-1-yl)but-1-ynyl)pyridin-4-yloxy)-3-fluorophenyl)-3-(4-fluorophenyl)-2,4-dioxo-1,2,3,4-tetrahydropyrimidine-5-carboxamide], the IC50 in the assay with HCC827/OR cells (setting [3]) was > 10000 nM; with PC9/ER cells (setting [3]) it was < 10000 nM; in the assay with HCC827/ER cells (setting [4]), < 10000 nM; in the assay on HCC827/GR cells (setting [3]), < 10000 nM.

For the compound `COCCN1CCN(C(=O)/C=C/c2c(Oc3ccc(NC(=O)c4cn(C(C)C)c(=O)n(-c5ccc(F)cc5)c4=O)cc3F)ccnc2N)CC1` [Example 4, (E)-N-(4-(2-amino-3-(3-(4-(2-methoxyethyl)piperazin-1-yl)-3-oxoprop-1-enyl)pyridin-4-yloxy)-3-fluorophenyl)-3-(4-fluorophenyl)-1-isopropyl-2,4-dioxo-1,2,3,4-tetrahydropyrimidine-5-carboxamide], the IC50 in the assay with HCC827/OR cells (setting [1]) was < 10 nM; in the assay with PC9/ER cells (setting [1]), < 1000 nM; in the assay on HCC827/ER cells (setting [2]) it was < 10 nM; with HCC827/GR cells (setting [1]), < 10 nM.

With `CC(C)n1cc(C(=O)Nc2ccc(Oc3ccnc(N)c3/C=C/C(=O)N3CCNCC3)c(F)c2)c(=O)n(-c2ccc(F)cc2)c1=O` [Example 3, (E)-N-(4-(2-amino-3-(3-oxo-3-(piperazin-1-yl)prop-1-enyl)pyridin-4-yloxy)-3-fluorophenyl)-3-(4-fluorophenyl)-1-isopropyl-2,4-dioxo-1,2,3,4-tetrahydropyrimidine-5-carboxamide], the IC50 is < 100 nM in the assay with HCC827/OR cells (setting [1]), < 1000 nM with PC9/ER cells (setting [1]), < 100 nM with HCC827/ER cells (setting [2]) and < 100 nM with HCC827/GR cells (setting [1]).

For the compound `CN1CCC(CC#Cc2c(Oc3ccc(NC(=O)c4cn(CC(=O)N(C)C)c(=O)n(-c5ccc(F)cc5)c4=O)cc3F)ccnc2N)CC1` [Example 37, N-(4-((2-amino-3-(3-(1-methylpiperidin-4-yl)prop-1-yn-1-yl)pyridin-4-yl)oxy)-3-fluorophenyl)-1-(2-(dimethylamino)-2-oxoethyl)-3-(4-fluorophenyl)-2,4-dioxo-1,2,3,4-tetrahydropyrimidine-5-carboxamide], the IC50 with HCC827/OR cells (setting [3]), in the assay with PC9/ER cells (setting [3]), with HCC827/ER cells (setting [4]) and in the assay with HCC827/GR cells (setting [3]) was < 10000 nM in each case.

On to `CCCn1cc(-c2c(Oc3ccc(NC(=O)c4cn(C(C)C)c(=O)n(-c5ccc(F)cc5)c4=O)cc3F)ccnc2N)cn1` [Example 12, N-(4-(2-amino-3-(1-propyl-1H-pyrazol-4-yl)pyridine-4-yloxy)-3-fluorophenyl)-3-(4-fluorophenyl)-1-isopropyl-2,4-dioxo-1,2,3,4-tetrahydropyrimidine-5-carboxamide], for which the IC50 with HCC827/OR cells (setting [1]) is < 10 nM; in the assay on PC9/ER cells (setting [1]), < 1000 nM; with HCC827/ER cells (setting [2]) it was < 100 nM; in the assay on HCC827/GR cells (setting [1]) it was < 100 nM.

For `C=CCn1cc(C(=O)Nc2ccc(Oc3ccnc(N)c3C#CCC3CCN(C)CC3)c(F)c2)c(=O)n(CC=C)c1=O` [Example 69, 1,3-diallyl-N-(4-(2-amino-3-(3-(1-methylpiperdin-4-yl)prop-1-ynyl)pyridin-4-yloxy)-3-fluorophenyl)-2,4-dioxo-1,2,3,4-tetrahydropyrimidine-5-carboxamide], the IC50 in the assay with HCC827/OR cells (setting [3]), with PC9/ER cells (setting [3]), with HCC827/ER cells (setting [4]) and with HCC827/GR cells (setting [3]) was < 1000 nM throughout.
